Assay results published in the supplement of paper PMC10307832.

What was measured:
Assay in all cases: relative viability (nuclei count vs DMSO), 5 days (fraction); higher = more cells survive
[1] = compound: Cn1cnc2c(F)c(Nc3ccc(Br)cc3Cl)c(C(=O)NOCCO)cc21 [Selumetinib] + O=C(CCCCCCC(=O)Nc1ccccc1)NO [Vorinostat] (partner 1 µM)
Procedure, shortened: (§1)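 Relative viability is defined as nuclei in treated wells over nuclei in vehicle wells. Duplicate plates were run and medians reported. Lung cancer cell lines in 1536-well plates were dosed by pin tool one day after seeding, with one drug or with a fixed anchor-drug dose plus five library-drug doses (not always all listed) in √10 steps, and nuclei were counted after 5 days.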

[2] = compound: Cn1cnc2c(F)c(Nc3ccc(Br)cc3Cl)c(C(=O)NOCCO)cc21 [Selumetinib] + CC(=O)c1c(C)c2cnc(Nc3ccc(N4CCNCC4)cn3)nc2n(C2CCCC2)c1=O [Palbociclib] (partner 0.5 µM)
Procedure, shortened: as §1

[3] = compound: Cn1cnc2c(F)c(Nc3ccc(Br)cc3Cl)c(C(=O)NOCCO)cc21 [Selumetinib] + COc1cccc2cc(-c3nc([C@H]4CC[C@H](C(=O)O)CC4)n4ncnc(N)c34)[nH]c12 [OSI-027] (partner 0.5 µM)
Procedure, shortened: as §1

[4] = compound: CC1(C)CCC(CN2CCN(c3ccc(C(=O)NS(=O)(=O)c4ccc(NCC5CCOCC5)c([N+](=O)[O-])c4)c(Oc4cnc5[nH]ccc5c4)c3)CC2)=C(c2ccc(Cl)cc2)C1 [Venetoclax] + O=C(CCCCCCC(=O)Nc1ccccc1)NO [Vorinostat] (partner 1 µM)
Procedure, shortened: as §1

Cell Line: UMC-11
- relative viability ([1]; first compound 0.02 µM): 0.387
- relative viability ([1]; first compound 0.06325 µM): 0.285
- relative viability ([1]; first compound 0.2 µM): 0.348
- relative viability ([1]; first compound 0.6325 µM): 0.368
- relative viability ([2]; first compound 0.02 µM): 0.309
- relative viability ([2]; first compound 0.06325 µM): 0.37
- relative viability ([2]; first compound 0.2 µM): 0.306
- relative viability ([2]; first compound 0.6325 µM): 0.34
- relative viability ([3]; first compound 0.02 µM): 0.459
- relative viability ([3]; first compound 0.06325 µM): 0.471
- relative viability ([3]; first compound 0.2 µM): 0.379
- relative viability ([3]; first compound 0.6325 µM): 0.45
- relative viability ([4]; first compound 0.01 µM): 0.329
- relative viability ([4]; first compound 0.03162 µM): 0.29
- relative viability ([4]; first compound 0.1 µM): 0.274
- relative viability ([4]; first compound 0.3162 µM): 0.23
- relative viability ([4]; first compound 1 µM): 0.261
